Data: BindingDB's records for doi:10.1016/j.chembiol.2016.10.011 (H. Lee Moffitt Cancer Center & Research Institute, 2016)

How the values were obtained:
[1] = target: T1, GDH/6PGL endoplasmic bifunctional protein (Homo sapiens, UniProt O95479); assay: H6PD Activity Assay
T1 sequence (O95479 whole entry): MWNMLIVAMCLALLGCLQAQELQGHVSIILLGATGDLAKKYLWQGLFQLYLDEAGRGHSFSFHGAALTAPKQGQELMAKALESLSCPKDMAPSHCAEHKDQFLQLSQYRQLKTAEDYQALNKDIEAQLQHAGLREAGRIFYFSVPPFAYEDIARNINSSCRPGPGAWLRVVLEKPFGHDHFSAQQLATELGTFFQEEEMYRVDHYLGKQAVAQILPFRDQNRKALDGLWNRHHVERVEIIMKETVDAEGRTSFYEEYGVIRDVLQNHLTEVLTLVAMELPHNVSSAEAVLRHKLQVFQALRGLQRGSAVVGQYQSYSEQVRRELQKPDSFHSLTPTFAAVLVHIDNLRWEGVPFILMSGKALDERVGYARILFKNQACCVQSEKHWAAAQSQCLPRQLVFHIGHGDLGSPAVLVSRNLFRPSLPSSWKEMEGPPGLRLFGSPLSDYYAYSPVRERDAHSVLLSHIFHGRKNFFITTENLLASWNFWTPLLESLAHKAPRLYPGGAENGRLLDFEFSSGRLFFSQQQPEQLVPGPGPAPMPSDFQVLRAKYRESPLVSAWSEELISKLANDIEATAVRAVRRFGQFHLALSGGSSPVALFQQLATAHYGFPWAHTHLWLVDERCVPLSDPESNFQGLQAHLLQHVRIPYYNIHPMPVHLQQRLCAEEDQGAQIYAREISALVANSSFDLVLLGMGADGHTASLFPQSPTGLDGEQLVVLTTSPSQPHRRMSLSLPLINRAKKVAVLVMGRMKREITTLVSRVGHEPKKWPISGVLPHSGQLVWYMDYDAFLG
Procedure: HEK293 H6PD-OE and HEK293 pellets were lysed and the lysate was quantified with the Bradford protein assay. Reaction mix containing galactose-6-phosphate (Gal6P) was combined with increasing concentrations of PARPi or DMSO. As an additional control, reaction mix without substrate was combined with HEK293 H6PD-OE lysate. Lysate from HEK293 or HEK293 H6PD-OE was added to each well to start the reactions. The absorbance at 340 nm (NADPH) was measured for 90 min at 10 min intervals. The 60 min data, which were within the linear range, was used for analysis. Background absorbance was subtracted and the H6PD activity of theHEK293 H6PD-OE lysates treated with PARPi was normalized to the DMSO control.

[2] = target: Poly [ADP-ribose] polymerase 1 (Homo sapiens, UniProt P09874); assay: In Vitro PARP1 Activity Assay
Procedure: Inhibition of PARP1 was assessed using the Universal Chemiluminescent PARPKit. Luminescence readings were normalized to controls and fit to a sigmoidaldose-response curve using GraphPad Prism 6 to determine IC50 values.

Poly [ADP-ribose] polymerase 1, sequence (P09874 whole entry): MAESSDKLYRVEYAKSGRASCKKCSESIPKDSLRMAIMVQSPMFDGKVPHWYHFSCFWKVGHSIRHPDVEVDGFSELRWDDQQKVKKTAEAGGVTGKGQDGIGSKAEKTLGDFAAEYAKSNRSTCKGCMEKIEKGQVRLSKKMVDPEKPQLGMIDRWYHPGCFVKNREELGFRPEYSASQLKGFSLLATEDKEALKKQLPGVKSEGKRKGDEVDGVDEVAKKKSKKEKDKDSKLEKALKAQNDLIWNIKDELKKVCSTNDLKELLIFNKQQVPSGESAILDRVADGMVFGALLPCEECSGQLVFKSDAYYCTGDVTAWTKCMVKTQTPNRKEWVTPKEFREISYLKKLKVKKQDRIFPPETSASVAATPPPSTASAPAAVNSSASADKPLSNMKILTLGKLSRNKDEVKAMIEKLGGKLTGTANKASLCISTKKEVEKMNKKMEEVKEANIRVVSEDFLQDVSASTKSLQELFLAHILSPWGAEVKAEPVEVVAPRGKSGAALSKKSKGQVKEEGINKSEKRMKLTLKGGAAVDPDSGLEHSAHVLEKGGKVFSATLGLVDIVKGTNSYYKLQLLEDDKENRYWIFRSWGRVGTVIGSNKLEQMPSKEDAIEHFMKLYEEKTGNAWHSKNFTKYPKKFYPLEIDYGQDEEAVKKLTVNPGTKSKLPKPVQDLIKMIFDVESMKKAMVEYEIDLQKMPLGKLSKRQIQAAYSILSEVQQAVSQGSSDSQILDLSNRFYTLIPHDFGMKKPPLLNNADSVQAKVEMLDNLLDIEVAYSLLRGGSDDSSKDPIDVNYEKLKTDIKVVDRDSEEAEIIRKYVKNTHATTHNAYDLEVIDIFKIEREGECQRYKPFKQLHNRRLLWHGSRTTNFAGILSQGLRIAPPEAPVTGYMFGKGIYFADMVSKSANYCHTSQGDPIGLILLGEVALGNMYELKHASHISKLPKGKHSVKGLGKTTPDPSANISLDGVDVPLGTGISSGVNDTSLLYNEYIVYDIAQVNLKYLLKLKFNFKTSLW

Row | SMILES | IC50 [1] [nM] | IC50 [2] [nM]
1 | CNCc1ccc(-c2[nH]c3cc(F)cc4c3c2CCNC4=O)cc1 [AG-014699] | 18000 | 
2 | NCCCN1CCC[C@@H](c2ccc(-n3cc4cccc(C(N)=O)c4n3)cc2)C1 [c-Niraparib] |  | 48.4
3 | NCCCC(=O)N1CCN(C(=O)c2cc(Cc3n[nH]c(=O)c4ccccc34)ccc2F)CC1 [c-Olaparib] |  | 5.9
4 | CN(CCCN)Cc1ccc(-c2[nH]c3cc(F)cc4c3c2CCNC4=O)cc1 [c-Rucaparib] |  | 4.4
5 | C[C@]1(c2nc3c(C(N)=O)cccc3[nH]2)CCCN1CCCN [c-Veliparib] |  | 8.4
